Source: article PMC6151525, “Investigation of the N-Terminus Amino Function of Arg10-Teixobactin” (Molecules : A Journal of Synthetic Chemistry and Natural …, 2017)
Read-outs that look alike come from different tables or passages of the source.

How the values were obtained:
[1] = system: Staphylococcus aureus ATCC 29213; assay type: cell-based; conditions: ATCC 29213, 24 h
Procedure: (§1) After the purification and characterization of the new analogs by MALDI-TOF, their antimicrobial activity was tested against two gram-positive bacteria strains, Staphylococcus aureus and Bacillo subtilis, as well as two gram-negative strains, namely Escherichia coli and Pseudomonas aeruginosa (Table 1). […] They were then diluted to reach 512 μg/mL, the highest concentration tested, followed by two-fold serial dilution. […] The MIC was determined using the broth micro dilution method, as described by the Clinical and Laboratory Standards Institute (CLSI) guidelines, using two gram-positive and two gram-negative bacteria strains (Staphylococcus aureus ATCC 29213, Bacillus subtilis ATCC 6051, Escherichia coli ATCC 25922, Pseudomonas aeruginosa ATCC 27853). First, the bacterial strains were sub-cultured onto Mueller Hinton agar and incubated at 37 °C for 24 h before use in the experiments. Stock solutions at 6 mg/mL in 10% DMSO were prepared for analogs 1–4 and 60% DMSO for analogs 5, 6, and 8. Second, two-fold serial dilutions of each drug/compound were made in cation-adjusted Mueller Hinton broth (CAMHB) in a 96-well microtiter plate. The bacterial inoculum was prepared in distilled water, matched to a 0.5 McFarland standard, and added to make a final volume of 200 µL in each microliter well. The plates were incubated for 24 h at 37 °C under aerobic conditions. The MIC was then recorded as the lowest concentration at which no visible growth occurred. Standard drug, media, and bacterial growth control wells were included in each plate. […] The assay was performed in triplicate to confirm the results.

[2] = system: Bacillus subtilis ATCC 6051; assay type: cell-based; conditions: ATCC 6051, 24 h
Procedure: as §1

[3] = system: Escherichia coli ATCC 25922; assay type: cell-based; conditions: ATCC 25922, 24 h
Procedure: as §1

[4] = assay type: physicochemical
Procedure: The most hydrophobic analogs, 5, 6, and 8, presented several difficulties regarding purification. […] Nevertheless, by washing the solid obtained several times with 30% acetonitrile in water, impurities from the cyclization were removed, as were the protecting groups, and the decanoyl derivative was obtained in good purity (Figure S11). The mixture of compounds 5 and 6 was also a challenge with respect to solubilization. In this case, the addition first of 100 μL of TFA and then 7 mL of acetonitrile, followed by sonication for 15 min, yielded a clear solution. Then, 3 mL of water was added slowly and no precipitation of the compounds was observed. This solution was injected into the semi-preparative HPLC, and the two analogs were separated efficiently.
After the purification and characterization of the new analogs by MALDI-TOF, their antimicrobial activity was tested against two gram-positive bacteria strains, Staphylococcus aureus and Bacillo subtilis, as well as two gram-negative strains, namely Escherichia coli and Pseudomonas aeruginosa (Table 1). […] They were then diluted to reach 512 μg/mL, the highest concentration tested, followed by two-fold serial dilution.

[5] = system: Staphylococcus aureus ATCC 29213; conditions: Gram+; natural teixobactin, reference line of Table 1; cited from earlier work
Description: Table 1 Minimum Inhibitory Concentration (MIC) (µg/mL) for teixobactin analogs (1–6, 8–10). | column: Gram+ / S. aureus ATCC 29213

[6] = system: Pseudomonas aeruginosa ATCC 27853; conditions: Gram−; natural teixobactin, reference line of Table 1; cited from earlier work
Description: Table 1 Minimum Inhibitory Concentration (MIC) (µg/mL) for teixobactin analogs (1–6, 8–10). | column: Gram− / P. aerug ATCC 27853

[7] = system: Escherichia coli ATCC 25922; conditions: Gram−; natural teixobactin, reference line of Table 1; cited from earlier work
Description: Table 1 Minimum Inhibitory Concentration (MIC) (µg/mL) for teixobactin analogs (1–6, 8–10). | column: Gram− / E. coli ATCC 25922

[8] = system: Bacillus subtilis ATCC 6051; conditions: Gram+; natural teixobactin, reference line of Table 1; cited from earlier work
Description: Table 1 Minimum Inhibitory Concentration (MIC) (µg/mL) for teixobactin analogs (1–6, 8–10). | column: Gram+ / B. subtilis ATCC 6051

[9] = system: Pseudomonas aeruginosa ATCC 27853; assay: MIC, broth microdilution (CLSI); assay type: cell-based; conditions: Gram−, CAMHB, 24 h at 37 °C, two-fold dilutions from 512 µg/mL, triplicate
Procedure: After the purification and characterization of the new analogs by MALDI-TOF, their antimicrobial activity was tested against two gram-positive bacteria strains, Staphylococcus aureus and Bacillo subtilis, as well as two gram-negative strains, namely Escherichia coli and Pseudomonas aeruginosa (Table 1). […] They were then diluted to reach 512 μg/mL, the highest concentration tested, followed by two-fold serial dilution. […] The MIC was determined using the broth micro dilution method, as described by the Clinical and Laboratory Standards Institute (CLSI) guidelines, using two gram-positive and two gram-negative bacteria strains (Staphylococcus aureus ATCC 29213, Bacillus subtilis ATCC 6051, Escherichia coli ATCC 25922, Pseudomonas aeruginosa ATCC 27853). First, the bacterial strains were sub-cultured onto Mueller Hinton agar and incubated at 37 °C for 24 h before use in the experiments. Stock solutions at 6 mg/mL in 10% DMSO were prepared for analogs 1–4 and 60% DMSO for analogs 5, 6, and 8. Second, two-fold serial dilutions of each drug/compound were made in cation-adjusted Mueller Hinton broth (CAMHB) in a 96-well microtiter plate. The bacterial inoculum was prepared in distilled water, matched to a 0.5 McFarland standard, and added to make a final volume of 200 µL in each microliter well. […] The MIC was then recorded as the lowest concentration at which no visible growth occurred. […]

Compound: CC[C@H](C)[C@H](NC(=O)[C@@H](Cc1ccccc1)N=C(N(C)C)N(C)C)C(=O)N[C@@H](CO)C(=O)N[C@H](CCC(N)=O)C(=O)N[C@@H](C(=O)N[C@H](C(=O)N[C@@H](CO)C(=O)N[C@H]1C(=O)N[C@@H](C)C(=O)N[C@@H](CCCNC(=N)N)C(=O)N[C@@H]([C@@H](C)CC)C(=O)O[C@H]1C)[C@@H](C)CC)[C@@H](C)CC [compound 10, N-Tmg-D-Phe-Arg10-teixobactin]
- Minimum Inhibitory Concentration (MIC) S. aureus ATCC 29213 [1]: 256 µg/mL
- Minimum Inhibitory Concentration (MIC) B. subtilis ATCC 6051 [2]: 64 µg/mL

Compound: CC[C@H](C)[C@H](NC(=O)[C@@H](Cc1ccccc1)N(C)C)C(=O)N[C@@H](CO)C(=O)N[C@H](CCC(N)=O)C(=O)N[C@@H](C(=O)N[C@H](C(=O)N[C@@H](CO)C(=O)N[C@H]1C(=O)N[C@@H](C)C(=O)N[C@@H](CCCNC(=N)N)C(=O)N[C@@H]([C@@H](C)CC)C(=O)O[C@H]1C)[C@@H](C)CC)[C@@H](C)CC [compound 3, N-Me2-D-Phe-Arg10-teixobactin]
- Minimum Inhibitory Concentration (MIC) E. coli ATCC 25922 [3]: 128 µg/mL
- Minimum Inhibitory Concentration (MIC) S. aureus ATCC 29213 [1]: 16 µg/mL
- Minimum Inhibitory Concentration (MIC) B. subtilis ATCC 6051 [2]: 2 µg/mL

Compound: N-Dec-D-Phe-Arg10-teixobactin [compound 8]
- solubility in solvent systems compatible with reverse-phase chromatography [4]: not possible to dissolve
- solubility in water [4]: poor solubility in water

Compound: Teixobactin
- Minimum Inhibitory Concentration (MIC) S. aureus ATCC 29213 [5]: 0.25 µg/mL
- Minimum Inhibitory Concentration (MIC) P. aerug ATCC 27853 [6]: >32 µg/mL
- Minimum Inhibitory Concentration (MIC) E. coli ATCC 25922 [7]: 25 µg/mL
- Minimum Inhibitory Concentration (MIC) B. subtilis ATCC 6051 [8]: 0.06 µg/mL

Compound: CC[C@H](C)[C@H](NC(=O)[C@H](N)Cc1ccccc1)C(=O)N[C@@H](CO)C(=O)N[C@H](CCC(N)=O)C(=O)N[C@@H](C(=O)N[C@H](C(=O)N[C@@H](CO)C(=O)N[C@H]1C(=O)N[C@@H](C)C(=O)N[C@@H](CCCNC(=N)N)C(=O)N[C@@H]([C@@H](C)CC)C(=O)O[C@H]1C)[C@@H](C)CC)[C@@H](C)CC [compound 2, D-Phe-Arg10-teixobactin]
- Minimum Inhibitory Concentration (MIC) E. coli ATCC 25922 [3]: 32 µg/mL
- Minimum Inhibitory Concentration (MIC) S. aureus ATCC 29213 [1]: 2 µg/mL
- Minimum Inhibitory Concentration (MIC) B. subtilis ATCC 6051 [2]: 1 µg/mL

Compound: CCCCCCCCCCN(CCCCCCCCCC)[C@H](Cc1ccccc1)C(=O)N[C@H](C(=O)N[C@@H](CO)C(=O)N[C@H](CCC(N)=O)C(=O)N[C@@H](C(=O)N[C@H](C(=O)N[C@@H](CO)C(=O)N[C@H]1C(=O)N[C@@H](C)C(=O)N[C@@H](CCCNC(=N)N)C(=O)N[C@@H]([C@@H](C)CC)C(=O)O[C@H]1C)[C@@H](C)CC)[C@@H](C)CC)[C@@H](C)CC [compound 6, N-De2-D-Phe-Arg10-teixobactin]
- Minimum Inhibitory Concentration (MIC) B. subtilis ATCC 6051 [2]: 128 µg/mL
- solubility in water [4]: poor solubility in water

Compound: CC[C@H](C)[C@H](NC(=O)[C@@H](Cc1ccccc1)NC)C(=O)N[C@@H](CO)C(=O)N[C@H](CCC(N)=O)C(=O)N[C@@H](C(=O)N[C@H](C(=O)N[C@@H](CO)C(=O)N[C@H]1C(=O)N[C@@H](C)C(=O)N[C@@H](CCCNC(=N)N)C(=O)N[C@@H]([C@@H](C)CC)C(=O)O[C@H]1C)[C@@H](C)CC)[C@@H](C)CC [compound 1, N-Me-D-Phe-Arg10-teixobactin]
- Minimum Inhibitory Concentration (MIC) E. coli ATCC 25922 [3]: 64 µg/mL
- Minimum Inhibitory Concentration (MIC) S. aureus ATCC 29213 [1]: 2 µg/mL
- Minimum Inhibitory Concentration (MIC) B. subtilis ATCC 6051 [2]: 0.5 µg/mL
- Minimum Inhibitory Concentration (MIC) P. aerug ATCC 27853 [9]: NI ^1

Compound: CCCCCCCCCCN[C@H](Cc1ccccc1)C(=O)N[C@H](C(=O)N[C@@H](CO)C(=O)N[C@H](CCC(N)=O)C(=O)N[C@@H](C(=O)N[C@H](C(=O)N[C@@H](CO)C(=O)N[C@H]1C(=O)N[C@@H](C)C(=O)N[C@@H](CCCNC(=N)N)C(=O)N[C@@H]([C@@H](C)CC)C(=O)O[C@H]1C)[C@@H](C)CC)[C@@H](C)CC)[C@@H](C)CC [compound 5, N-De-D-Phe-Arg10-teixobactin]
- Minimum Inhibitory Concentration (MIC) B. subtilis ATCC 6051 [2]: 128 µg/mL
- solubility in water [4]: poor solubility in water
